Experimental data published in ChEMBL document CHEMBL5661943, “ASAP - In vitro antiviral effect” (2024).
Where “and” joins values, the source holds several entries; their conditions need not be identical. Identical values can stand only once.

Assays:
[1] = tested on: Zika virus; test: Functional CPE-based assay to measure dose dependent changes in antiviral-drug inhibitory efficacy against Zika virus MR766 in Vero E6 miRFP670 cells (cotreated with P-gp inhibitor, CP100356). Cells are treated with antiviral candidates that are serially diluted. EC50 is reported via analysis of MTS assay as a readout of CPE. The assay has been performed by KU Leuven.; assay type: organism-based, Chlorocebus sabaeus, Vero C1008; settings: Zika virus; for EC90: P-gp concentration 500 nM, P-gp inhibitor CP100356
[2] = tested on: dengue virus type 2; test: Functional assay to measure dose dependent changes in antiviral-drug inhibitory efficacy against Dengue virus type 2 New Guinea C in Vero E6 miRFP670 cells (cotreated with P-gp inhibitor, CP100356). Cells are treated with antiviral candidates that are serially diluted, following infection, cells are fixed. EC50 is reported via analysis of fluorescence intensity using high-content imager. The …; assay type: organism-based, Chlorocebus sabaeus, Vero C1008; settings: Dengue virus; for EC90: P-gp concentration 500 nM, P-gp inhibitor CP100356
[3] = tested on: Zika virus; test: EC50 is reported via analysis of immunofluorescence staining. The assay has been performed by Icahn School of Medicine at Mount Sinai.; assay type: functional, organism-based, Chlorocebus sabaeus, VeroE6/TMPRSS2; settings: for EC90: P-gp concentration 2 uM, P-gp inhibitor Elacidar
[4] = tested on: dengue virus type 2; test: Functional immunofluorescence assay to measure dose dependent changes in antiviral-drug inhibitory efficacy against Dengue virus type 2 Thailand/16681/84 in Vero E6/TMPRSS2 cells (cotreated with P-gp inhibitor, Elacridar). Cells are treated with antiviral candidates that are serially diluted, following infection, cells are fixed. EC50 is reported via analysis of immunofluorescence staining. The assay has been performed by Icahn School of Medicine at Mount Sinai.; assay type: organism-based, Chlorocebus sabaeus, VeroE6/TMPRSS2; settings: Dengue virus

O=C(Nc1ccc2c(c1)CCNCC2)c1cc(Cl)cc2[nH]ncc12
EC50 ([1]; Vero C1008): > 50 µM | EC90 ([1]; Vero C1008, Maximum measured -0.637 %, Minimum measured -2.713 %): > 50 µM | EC50 ([2]; Vero C1008): > 25 µM | EC90 ([2]; Vero C1008, Baseline response 0 %, Hill slope -0.681, Maximum measured 107.454 %, Maximum response 100 %, Minimum measured 77.093 %, R squared 0.152): > 25 µM | EC50 ([3]; Zika virus, VeroE6/TMPRSS2): > 50 µM | EC90 ([3]; Zika virus, VeroE6/TMPRSS2, Maximum measured 112.155 %, Minimum measured 46.888 %): > 50 µM | EC50 ([4]; VeroE6/TMPRSS2): > 50 µM | EC90 ([4]; VeroE6/TMPRSS2): > 50 µM

COC(=O)CNC(=O)[C@H](Nc1ccc2c(c1)CNC2)c1cc(Cl)cc(C2CC2)c1
EC50 ([1]; Vero C1008): > 50 µM | EC90 ([1]; Vero C1008, Baseline response 0 %, Hill slope 2.666, Maximum measured 16.971 %, Maximum response 100 %, Minimum measured -1.569 %, R squared 0.882): > 50 µM | EC50 ([2]; Vero C1008): > 50 µM | EC90 ([2]; Vero C1008, Maximum measured 109.152 %, Minimum measured 106.626 %): > 50 µM | EC90 ([3]; Zika virus, VeroE6/TMPRSS2, Maximum measured 147.006 %, Minimum measured 69.301 %): > 16.7 µM | EC90 ([3]; Zika virus, VeroE6/TMPRSS2, Baseline response 0 %, Hill slope -5.229, Maximum measured 154.716 %, Maximum response 100 %, Minimum measured 79.745 %, R squared 0.023): > 5.56 µM | EC50 ([3]; veroe6/tmprss2): > 16.7 µM | EC50 ([4]; VeroE6/TMPRSS2): > 50 µM | EC90 ([4]; VeroE6/TMPRSS2, Maximum measured 158.675 %, Minimum measured 120.715 %, P-gp concentration 2 uM, P-gp inhibitor Elacidar): > 50 µM

Cc1ccc(NC(=O)c2cc(Cl)cc3[nH]ncc23)cc1CN
EC50 ([1]; Vero C1008): > 50 µM | EC90 ([1]; Vero C1008, Maximum measured -0.519 %, Minimum measured -6.318 %): > 50 µM | EC50 ([2]; Vero C1008): 29.2 µM | EC90 ([2]; Vero C1008, Baseline response 0 %, Hill slope -1.708, Maximum measured 106.876 %, Maximum response 100 %, Minimum measured 12.632 %, R squared 0.516): > 50 µM | EC50 ([3]; Zika virus, VeroE6/TMPRSS2): 23.7 µM | EC90 ([3]; Zika virus, VeroE6/TMPRSS2, Baseline response 0 %, Hill slope -0.507, Maximum measured 128.919 %, Maximum response 100 %, Minimum measured 43.47 %, R squared 0.43): > 50 µM | EC50 ([4]; VeroE6/TMPRSS2): > 50 µM | EC90 ([4]; VeroE6/TMPRSS2, Baseline response 0 %, Hill slope -2.664, Maximum measured 202.734 %, Maximum response 169.492 %, Minimum measured 72.11 %, P-gp concentration 2 uM, R squared 0.716, P-gp inhibitor Elacidar): > 50 µM

O=C(NCc1ccc(F)cc1)[C@H](Nc1ccc2c(c1)CNC2)c1cc(Cl)cc2[nH]ncc12
EC50 ([1]; Vero C1008): > 50 µM | EC90 ([1]; Vero C1008, Maximum measured 1.197 %, Minimum measured -8.607 %): > 50 µM | EC50 ([2]; Vero C1008): > 50 µM | EC90 ([2]; Vero C1008, Maximum measured 108.299 %, Minimum measured 100.399 %): > 50 µM | EC90 ([3]; Baseline response 0 %, EC90 CI (lower) 0.003 uM, EC90 CI (upper) 0.037 uM, Hill slope -0.964, Maximum measured 95.888 %, Maximum response 100 %, Minimum measured 15.187 %, R squared 0.753): 0.949 µM | EC90 ([3]; Baseline response 0 %, Hill slope -0.072, Maximum measured 102.654 %, Maximum response 100 %, Minimum measured 56.434 %, R squared 0.024): > 16.7 µM | EC50 ([4]; VeroE6/TMPRSS2): > 50 µM | EC90 ([4]; VeroE6/TMPRSS2, Maximum measured 150.332 %, Minimum measured 95.286 %, P-gp concentration 2 uM, P-gp inhibitor Elacidar): > 50 µM

O=C(Nc1ccc2c(c1)CNC2)c1cc(F)cc2[nH]ncc12
EC50 ([1]; Vero C1008): 25 µM | EC90 ([1]; Vero C1008, Baseline response 0 %, Hill slope 1.231, Maximum measured 66.562 %, Maximum response 100 %, Minimum measured -0.926 %, R squared 0.986): > 50 µM | EC50 ([2]; Vero C1008): > 50 µM | EC90 ([2]; Vero C1008, Maximum measured 105.261 %, Minimum measured 100.126 %): > 50 µM | EC90 ([3]; Baseline response 0 %, EC90 CI (lower) 0.259 uM, EC90 CI (upper) 34.627 uM, Hill slope -1.703, Maximum measured 110.866 %, Maximum response 50 %, Minimum measured 3.647 %, R squared 0.44): 39.5 µM | EC90 ([3]; Zika virus, VeroE6/TMPRSS2, Baseline response 0 %, Hill slope -2.726, Maximum measured 111.669 %, Maximum response 100 %, Minimum measured 14.076 %, R squared 0.547): > 50 µM | EC50 ([3]; veroe6/tmprss2): 25.4 µM and 10.9 µM | EC50 ([4]; VeroE6/TMPRSS2): > 50 µM | EC90 ([4]; VeroE6/TMPRSS2, Maximum measured 176.33 %, Minimum measured 105.177 %, P-gp concentration 2 uM, P-gp inhibitor Elacidar): > 50 µM
